# Source: PMC10348910, “Epigenetic reprogramming of cell cycle genes by ACK1 promotes breast cancer resistance to CDK4/6 inhibitor” (Oncogene, 2023)
# Assays:
# Assay type in all cases: cell-based
# [1] = test system: CCNB1, CCNB2 and CDC20 mRNA; assay: qRT-PCR of CCNB1, CCNB2 and CDC20 in breast cancer cells; details: MCF7, MDA-MB-453, SKBR3 and HCC-1395 cells; overnight
# Description: Fig. 2 ACK1 regulates breast cancer transcriptome, affecting genes implicated in cell cycle progression. A Chemical structure of (R)-9b. B Breast cancer cell lines were treated with either vehicle or (R)-9b overnight and cell lysates were subjected to immunoprecipitation using ACK1 antibody, followed by immunoblotting with pY284-ACK1 antibody. Lysates were also subjected to immunoblotting with total ACK1 and Actin antibodies, shown in the lower panels. […] C Breast cancer cell lines were treated with varying concentrations of (R)-9b for 96 h and the cell proliferation was measured using Trypan Blue exclusion method. D–H RNA from breast cancer cells treated with vehicle or varying concentrations of (R)-9b overnight, and were subjected to qRT-PCR using CCNB1, CCNB2 and CDC20 primers. Actin or 18S rRNA was used as housekeeping control. For (B), representative images of three independent experiments are shown. For (C), a four parameter, variable slope, non-linear regression curve was computed, representing three independent experiments. […]
# Real-time quantitative PCR analyses were performed using the ABI PRISM 7900HT Sequence Detection System (Applied Biosystems) as described earlier. […] Data were analyzed using SDS software version 2.2.2 and exported into an Excel spreadsheet. […]
# breast cancer cell lines = assay: proliferation assay, trypan blue exclusion; details: 96 h
# Description: (§1) Fig. 2 ACK1 regulates breast cancer transcriptome, affecting genes implicated in cell cycle progression. A Chemical structure of (R)-9b. B Breast cancer cell lines were treated with either vehicle or (R)-9b overnight and cell lysates were subjected to immunoprecipitation using ACK1 antibody, followed by immunoblotting with pY284-ACK1 antibody. Lysates were also subjected to immunoblotting with total ACK1 and Actin antibodies, shown in the lower panels. […] C Breast cancer cell lines were treated with varying concentrations of (R)-9b for 96 h and the cell proliferation was measured using Trypan Blue exclusion method. […]
# (§2) For proliferation assay, 5 × 10^4 cells were plated in 6-well plate and treated with either vehicle (DMSO) or varying concentrations of (R)-9b or palbociclib in complete media for 96 h and number of viable cells were counted by trypan blue exclusion assay. […] The cells were acquired using the BD FACSCalibur machine (BD Biosciences) and data was analyzed using FlowJo software. […] The data were analyzed using FlowJo software.
# (§3) No data was excluded from the analysis. […] Data were expressed as the mean ± SEM. Data between two groups were analyzed with unpaired Student’s t tests using Graphpad Prism (Graphpad Software Inc, California, USA). […]
# [2] = test system: normal breast cell line, MCF10A; assay: proliferation assay, trypan blue exclusion; details: Homo sapiens, MCF-10A, 96 h
# Description: as §1, §2, §3
# pY88-H4 = assay: immunoprecipitation and immunoblotting for pY88-H4; details: breast cancer cell lines; overnight
# Description: Fig. 4 ACK1 epigenetically modifies the chromatin landscape by depositing pY88-H4 activating marks, regulating cell cycle genes. A Breast cancer cell lines were treated with (R)-9b overnight and the cell lysates were subjected to immunoprecipitation using pY88-H4 antibody, followed by immunoblotting with H4 antibody. Lysates were also subjected to immunoblotting with total H4 and Actin antibodies, shown in the lower panels. […] B Venn diagrams summarizing the overlap between sites bound by pY88-H4 in vehicle treated and (R)-9b treated MDA-MB-453 cells. […] Breast cancer cells were subjected to ChIP using pY88-H4 antibody followed by qPCR for (D) CCNB1, (E) CCNB2, and (F) CDC20 genes. For (A), representative images of three independent experiments are shown. For (D–F), data are represented as the mean ± SEM. *p < 0.05, **p < 0.01, ***p < 0.001, unpaired two-tailed Student’s t test.
# Vehicle or (R)-9b (5 µM, overnight in serum free media) treated cells were lysed by sonication in receptor lysis buffer (RLB) and lysates were fractionated by SDS-PAGE, and transferred onto a PVDF membrane (Immobilon). […]
smiles,measurement,setting,value
CN1CCN(c2ccc(Nc3ncc(Cl)c(NC[C@H]4CCCO4)n3)cc2)CC1 [(R)-9b],"CCNB1, CCNB2 and CDC20 mRNA transcripts",[1],significant downregulation
same,IC50,breast cancer cell lines,0.25 to 1.22 µM
same,IC50,[2],1.49 µM
same,pY88-H4 epigenetic marks (immunoblot),pY88-H4,significantly compromised
